With `Cl.N=C(N=C(N)N)N1CCOCC1` the solubility (mole fraction) (in acetone, 283.15 K) was 1.9e-05, the solubility (mole fraction) (in acetone, 293.15 K) was 3.3e-05 and the solubility (mole fraction) (in acetone, 303.15 K) was 6.2e-05. It also gave a solubility (mole fraction) (in acetone, 313.15 K) of 0.000107, a solubility (mole fraction) (in acetone, 323.15 K) of 0.000186 and a solubility (mole fraction) (in acetonitrile, 283.15 K) of 9.1e-05. For the same molecule, the solubility (mole fraction) (in acetonitrile, 293.15 K) was 0.000106, the solubility (mole fraction) (in acetonitrile, 303.15 K) was 0.000117 and the solubility (mole fraction) (in acetonitrile, 313.15 K) was 0.000128. For the same molecule, the solubility (mole fraction) (in acetonitrile, 323.15 K) was 0.000149, the solubility (mole fraction) (in ethanol, 283.15 K) was 0.0023 and the solubility (mole fraction) (in ethanol, 293.15 K) was 0.00283. It also gave a solubility (mole fraction) (in ethanol, 303.15 K) of 0.00356, a solubility (mole fraction) (in ethanol, 313.15 K) of 0.00461 and a solubility (mole fraction) (in ethanol, 323.15 K) of 0.00615. It also gave a solubility (mole fraction) (in ethyl acetate, 283.15 K) of 7.7e-05, a solubility (mole fraction) (in ethyl acetate, 293.15 K) of 9.7e-05 and a solubility (mole fraction) (in ethyl acetate, 303.15 K) of 0.000117. The solubility (mole fraction) (in ethyl acetate, 313.15 K) was 0.000138, the solubility (mole fraction) (in ethyl acetate, 323.15 K) was 0.000161 and the solubility (mole fraction) (in isobutanol, 283.15 K) was 0.000621. The solubility (mole fraction) (in isobutanol, 293.15 K) was 0.000696, the solubility (mole fraction) (in isobutanol, 303.15 K) was 0.000915 and the solubility (mole fraction) (in isobutanol, 313.15 K) was 0.00124. For the same molecule, the solubility (mole fraction) (in isobutanol, 323.15 K) was 0.00157, the solubility (mole fraction) (in isopropanol, 283.15 K) was 0.000482 and the solubility (mole fraction) (in isopropanol, 293.15 K) was 0.00062. The solubility (mole fraction) (in isopropanol, 303.15 K) was 0.00079, the solubility (mole fraction) (in isopropanol, 313.15 K) was 0.001 and the solubility (mole fraction) (in isopropanol, 323.15 K) was 0.00124. For the same molecule, the solubility (mole fraction) (in methanol, 283.15 K) was 0.013, the solubility (mole fraction) (in methanol, 293.15 K) was 0.0215 and the solubility (mole fraction) (in methanol, 303.15 K) was 0.0268. It also gave a solubility (mole fraction) (in methanol, 313.15 K) of 0.0341, a solubility (mole fraction) (in methanol, 323.15 K) of 0.0423 and a solubility (mole fraction) (in n-butanol, 283.15 K) of 0.000682. The solubility (mole fraction) (in n-butanol, 293.15 K) was 0.000834, the solubility (mole fraction) (in n-butanol, 303.15 K) was 0.00101 and the solubility (mole fraction) (in n-butanol, 313.15 K) was 0.00137. The solubility (mole fraction) (in n-butanol, 323.15 K) was 0.00184, the solubility (mole fraction) (in n-pentanol, 283.15 K) was 0.00045 and the solubility (mole fraction) (in n-pentanol, 293.15 K) was 0.000545. The solubility (mole fraction) (in n-pentanol, 303.15 K) was 0.00061, the solubility (mole fraction) (in n-pentanol, 313.15 K) was 0.000729 and the solubility (mole fraction) (in n-pentanol, 323.15 K) was 0.000967. It also gave a solubility (mole fraction) (in n-propanol, 283.15 K) of 0.0011, a solubility (mole fraction) (in n-propanol, 293.15 K) of 0.00136 and a solubility (mole fraction) (in n-propanol, 303.15 K) of 0.00161. The solubility (mole fraction) (in n-propanol, 313.15 K) was 0.00206, the solubility (mole fraction) (in n-propanol, 323.15 K) was 0.00279 and the solubility (mole fraction) (in sec-butanol, 283.15 K) was 0.000297. The solubility (mole fraction) (in sec-butanol, 293.15 K) was 0.000358, the solubility (mole fraction) (in sec-butanol, 303.15 K) was 0.000445 and the solubility (mole fraction) (in sec-butanol, 313.15 K) was 0.000534. The solubility (mole fraction) (in sec-butanol, 323.15 K) was 0.000732, the solubility (mole fraction) (in water, 283.15 K) was 0.0565 and the solubility (mole fraction) (in water, 293.15 K) was 0.0653. For the same molecule, the solubility (mole fraction) (in water, 303.15 K) was 0.0853, the solubility (mole fraction) (in water, 313.15 K) was 0.105 and the solubility (mole fraction) (in water, 323.15 K) was 0.127.

— BigSolDB 2.1
